Patent publication US11198686B2, “Crystal form and salt form of pyridone compound and preparation method therefor” (GUANGZHOU JOYO PHARMATECH CO., LTD., priority 2017, dated 2021)
Converted amounts (≈) assume the structure as drawn.

Tests used:
[1] = Study on polymorphism of Compound 1 (suspension in solvents, XRPD); type: physicochemical; conditions: for Crystal form: 40° C., 2 days
Description: Approximate 50 mg of the sample were weighed and added to separate 4.0 mL glass vials, respectively, followed by addition of an appropriate amount of the solvents or solvent mixture (see the table below) to give a suspension. After shaking at 40° C. for 2 days, all the samples were taken out and centrifuged in a centrifuge at 8000 r/min for 5 minutes. The supernatant was discarded, and the remaining solid was dried in a 35° C. vacuum drying box for two days. The dried samples were taken out for XRPD detection.

TNF-α = assay: Ex-vivo effect on endotoxin LPS-induced TNF-α in rat blood (ELISA); type: cell-based, Sprague Dawley rats
Description: Experimental objective: testing the effect of Compound 1 on bacterial lipopolysaccharide (LPS)-induced TNF-α in rat blood to evaluate the anti-inflammatory effect ex-vivo
Sprague Dawley rats (male, 280-310 g, Shanghai Slac Laboratory Animal CO. LTD)
Rat TNF-alpha Quantikine ELISA Kit (R&D, #SRTA00)
A solution of the compound was prepared (5 mM or 1 mM), and 40 μL of the prepared solution was added into a 48-well cell culture plate, respectively (the final concentration of the compounds was 0.5 or 0.1 mM). The rats were anaesthetized with isoflurane and the blood was collected from the abdominal aorta (Heparin anticoagulant). The blood was added into the 48-well cell culture plate (320 μL per well) containing the compounds to be tested. Afterwards, the 48-well cell culture plate was incubated at 37° C. for 30 minutes. Then the plate was taken out, and 40 μL of LPS (the final concentration was 100 μg/mL) was added and mixed evenly. The resulting mixture was incubated at 37° C. After 5 hours, the 48-well plate was taken out and the blood was transferred into 1.5 mL centrifuge tubes and centrifuged in a centrifuge (4,500 rpm, 4° C., 5 min). The supernatant was isolated to obtain the plasma, which was aliquoted (20 μL per well) into a 96-well sample plate, and then sharp-frozen and preserved in a refrigerator (−80° C.). On the second day, the TNF-α level in the plasma samples was determined by using R&D ELISA kits according to the kit specification. The data was analyzed by EXCEL and Prism.

[2] = tested on: idiopathic pulmonary fibrosis; assay: SD rat left unilateral pulmonary fibrosis model; type: in vivo
[3] = Solid-state physical stability test of crystal form A under different temperature, humidity and light irradiation; type: physicochemical; conditions: for Appearance / Crystal form: 10 d
Description: 4 samples of 100 mg of crystal form A solid were weighed in parallel and spread evenly on the bottom of the glass bottles into a thin layer. The bottles were sealed with aluminum foil, and some small holes were punched on the aluminum foil to allow the sample to be fully in contact with the ambient air. The 4 samples prepared were placed under the conditions of 25° C./92.5% RH, 60° C., 40° C./75% RH and light irradiation, and the physical stability of the samples on the 10th day was examined. In the meantime, about 100 mg of crystal form A solid was weighed separately, placed on the bottom of a glass sample bottle, sealed with a screw cap and stored at −20° C., this sample was used as the control sample. On the 10th day, all samples were taken out, and returned to room temperature. The appearance change of the samples was observed, and XRPD was used to detect the crystal form of the samples. By comparing the accelerated samples with the control sample, the solid-state physical stability of crystal form A of Compound 1 was determined.

[4] = Approximate solubility of crystal form A in different solvents (manual stepwise dilution); type: physicochemical; conditions: thermodynamic from solid, ambient temperature
Description: In this study, the method of manual stepwise dilution along with the observation of the dissolution under ambient temperature condition was used for determination. About 2 mg of crystal form A of Compound 1 was added to separate HPLC vials, followed by multiple addition of organic solvents or the mixed solvents (Table 5) in a small amount, and the dissolution of the compound was monitored.

[5] = Solid-state stability test of crystal form A under high temperature and high humidity (HPLC, XRPD); type: physicochemical; conditions: for Appearance / Crystal form / Purity / Total impurities: open
Description: 16 samples of 10 mg of crystal form A were weighed in parallel and spread evenly on the bottom of glass bottles, and 8 samples of 20 mg of crystal form A were spread out into a thin layer. All sample bottles were sealed with aluminum foil, and some small holes were punched on the aluminum foil to allow the samples to fully contact with the ambient air. The samples were placed at 40° C./75% RH and 60° C./75% RH for 1 month, 2 months and 3 months, respectively.
Analytical method: Agilent 1260 HPLC with DAD detector or Waters 2695 HPLC with PDA detector was used: column: Waters Atlantis dC18 (4.6 mm×150 mm, 3.0 μm); column temperature: 40° C.; flow rate: 1.0 mL/min; detection wavelength: 230 nm; injection volume: 10 μL; sample concentration: 0.5 mg/mL; diluent: acetonitrile:water=1:1 (v/v); the following mobile phase gradients were used for analysis: […]

For `CC1(c2ccc(=O)n(-c3ccsc3)c2)COC1` [Compound 1], the Crystal form ([1]; suspension in Acetone) was “Form A”, the Crystal form ([1]; suspension in Acetone:Water (1:2)) was “Form A” and the Crystal form ([1]; suspension in Acetonitrile) was “Form A”. The Crystal form ([1]; suspension in Ethanol) was “Form A”, the Crystal form ([1]; suspension in Ethyl acetate) was “Form A” and the Crystal form ([1]; suspension in Water) was “Form A”.

Work on `Cc1ccc(=O)n(-c2ccccc2)c1` [Pirfenidone (PFD), Pirfenidone, reference compound] yielded an inhibition at 500 µM (TNF-α; rat blood, LPS 100 μg/mL, compound 0.5 mM) of 53.5%.

With `CC1(c2ccc(=O)n(-c3ccsc3)c2)COC1` [crystal form A] the “Inhibitory effect on idiopathic pulmonary fibrosis (in words)” value [2] was “significant inhibitory effect”, the Appearance ([3]; 25° C./92.5% RH (open)) was “White” and the Crystal form ([3]; 25° C./92.5% RH (open)) was “Form A”. For the same molecule, the Appearance ([3]; 40° C./75% RH (open)) was “White”, the Crystal form ([3]; 40° C./75% RH (open)) was “Form A” and the Appearance ([3]; 60° C. (open)) was “White”. The Crystal form ([3]; 60° C. (open)) was “Form A”, the Appearance ([3]; Light irradiation) was “White” and the Crystal form ([3]; Light irradiation) was “Form A”. The “Solid-state physical stability (conclusion)” value ([3]; within 10 days under each condition) was “stable”, the “Inhibitory effect on TNF-α level induced by LPS (in words)” value (TNF-α; final concentration 0.1 mM, inhibition significantly higher than Pirfenidone) was “significant inhibitory effect” and the inhibition at 100 µM (TNF-α; rat blood, LPS 100 μg/mL, compound 0.1 mM) was 80.8%. The “Stability of crystal form in solvents (conclusion)” value ([1]; under the conditions of the solvents of Table 4) was “stable”, the solubility ([4]; aqueous with cosolvent or surfactant or cyclodextrin, Acetone-water (1:2)) was 52 to 103 mg/mL (≈ 210 to 416 mM) and the solubility ([4]; aqueous with cosolvent or surfactant or cyclodextrin, Acetonitrile-water (1:1)) was > 100 mg/mL. For the same molecule, the solubility ([4]; aqueous with cosolvent or surfactant or cyclodextrin, Ethanol-water (1:1)) was > 100 mg/mL, the solubility ([4]; aqueous with cosolvent or surfactant or cyclodextrin, Ethanol-water (3:1)) was > 104 mg/mL and the solubility ([4]; aqueous with cosolvent or surfactant or cyclodextrin, Isopropanol-water (1:1)) was > 102 mg/mL. For the same molecule, the solubility ([4]; aqueous with cosolvent or surfactant or cyclodextrin, Methanol-water (1:1)) was > 102 mg/mL, the solubility ([4]; aqueous with cosolvent or surfactant or cyclodextrin, Methanol-water (3:1)) was > 104 mg/mL and the solubility ([4]; organic solvent or mixture, 1,4-dioxane) was > 102 mg/mL. For the same molecule, the solubility ([4]; organic solvent or mixture, 2-Methyltetrahydrofuran) was 34 to 51 mg/mL (≈ 137 to 206 mM), the solubility ([4]; organic solvent or mixture, Acetone) was 52 to 103 mg/mL (≈ 210 to 416 mM) and the solubility ([4]; organic solvent or mixture, Acetonitrile) was > 100 mg/mL. For the same molecule, the solubility ([4]; organic solvent or mixture, Cyclohexane) was < 2 mg/mL, the solubility ([4]; organic solvent or mixture, Ethanol) was 51 to 102 mg/mL (≈ 206 to 412 mM) and the solubility ([4]; organic solvent or mixture, Ethyl acetate) was 34 to 51 mg/mL (≈ 137 to 206 mM). The solubility ([4]; organic solvent or mixture, Heptane) was < 2 mg/mL, the solubility ([4]; organic solvent or mixture, Isopropanol) was 34 to 52 mg/mL (≈ 137 to 210 mM) and the solubility ([4]; organic solvent or mixture, Isopropyl acetate) was 20 to 34 mg/mL (≈ 80.9 to 137 mM). For the same molecule, the solubility ([4]; organic solvent or mixture, Methanol) was > 104 mg/mL, the solubility ([4]; organic solvent or mixture, Methyl ethyl ketone) was 52 to 104 mg/mL (≈ 210 to 421 mM) and the solubility ([4]; organic solvent or mixture, Methyl isobutyl ketone) was 34 to 51 mg/mL (≈ 137 to 206 mM). The solubility ([4]; organic solvent or mixture, Methyl tert-butyl ether) was < 2 mg/mL, the solubility ([4]; organic solvent or mixture, Tetrahydrofuran) was 51 to 102 mg/mL (≈ 206 to 412 mM) and the solubility ([4]; organic solvent or mixture, Toluene) was 35 to 52 mg/mL (≈ 142 to 210 mM). The solubility ([4]; organic solvent or mixture, n-butanol) was 50 to 100 mg/mL (≈ 202 to 404 mM), the solubility ([4]; Water) was 10 to 21 mg/mL (≈ 40.4 to 84.9 mM) and the Appearance ([5]; 40° C./75% RH, 1 M) was “White powder”. The Crystal form ([5]; 40° C./75% RH, 1 M) was “Form A”, the Purity ([5]; 40° C./75% RH, 1 M) was 99.949% and the Total impurities ([5]; 40° C./75% RH, 1 M) was 0.051%. The Appearance ([5]; 40° C./75% RH, 2 M) was “White powder”, the Crystal form ([5]; 40° C./75% RH, 2 M) was “Form A” and the Purity ([5]; 40° C./75% RH, 2 M) was 99.948%. The Total impurities ([5]; 40° C./75% RH, 2 M) was 0.052%, the Appearance ([5]; 40° C./75% RH, 3 M) was “White powder” and the Crystal form ([5]; 40° C./75% RH, 3 M) was “Form A”. For the same molecule, the Purity ([5]; 40° C./75% RH, 3 M) was 99.947%, the Total impurities ([5]; 40° C./75% RH, 3 M) was 0.053% and the Appearance ([5]; 60° C./75% RH, 1 M) was “White powder”. For the same molecule, the Crystal form ([5]; 60° C./75% RH, 1 M) was “Form A”, the Purity ([5]; 60° C./75% RH, 1 M) was 99.949% and the Total impurities ([5]; 60° C./75% RH, 1 M) was 0.051%. For the same molecule, the Appearance ([5]; 60° C./75% RH, 2 M) was “White powder”, the Crystal form ([5]; 60° C./75% RH, 2 M) was “Form A” and the Purity ([5]; 60° C./75% RH, 2 M) was 99.948%. For the same molecule, the Total impurities ([5]; 60° C./75% RH, 2 M) was 0.052%, the Appearance ([5]; 60° C./75% RH, 3 M) was “White powder” and the Crystal form ([5]; 60° C./75% RH, 3 M) was “Form A”. The Purity ([5]; 60° C./75% RH, 3 M) was 99.950%, the Total impurities ([5]; 60° C./75% RH, 3 M) was 0.050% and the “Solid-state stability (conclusion)” value ([5]; within three months, 40° C./75% RH and 60° C./75% RH) was “stable”.
